Source: patent US11590129B2, “Combination therapy with an antitumor alkaloid” (PHARMA MAR, S.A., priority 2010, dated 2023)

Experiments:
[1] = test system: IGROV-1 human ovarian adenocarcinoma cell line; test: cells; details: Homo sapiens, IGROV-1, 72 h
[2] = test system: RXF-393 human kidney carcinoma cell line; test: cells; details: Homo sapiens, RXF 393, 72 h
[3] = test system: MDA-MB-231 human breast adenocarcinoma cell line; test: cells; details: Homo sapiens, MDA-MB-231, 72 h
[4] = test system: HepG2 human hepatocellular liver carcinoma cell line; test: MTT cytotoxicity assay in HepG2 cells: IC50 of single agents and combinations with PM01183; format: cell-based; details: Homo sapiens, HepG2, 72 h
[5] = test system: PC-3 human prostate cancer cell line; test: cells; details: Homo sapiens, PC-3, 72 h
Method in brief: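 Cells seeded at 5,000/well, grown 24 h drug-free, then exposed to vehicle or test compounds for 72 h. Viability by MTT reduction (8 h, 37 °C), formazan dissolved in DMSO. Values given as percentage of control cell growth.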

[6] = test system: HGC-27 human gastric carcinoma cell line; test: cells; details: Homo sapiens, HGC-27, 72 h
[7] = test system: A549 human lung carcinoma cell line; test: MTT cytotoxicity assay in A549 cells: IC50 of single agents and combinations with PM01183; format: cell-based; details: Homo sapiens, A549, 72 h
Method in brief: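 A549 cells seeded at 5,000 per well, grown 24 h drug-free, then exposed to vehicle or compounds for 72 h, either singly or combined with PM01183. Combination responses plotted against dose ratio relative to an additivity line.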

[8] = test system: JURKAT human leukemia cell line; test: cells; details: Homo sapiens, Jurkat, 72 h
Experimental: (§1) Additional serial dilutions were prepared in serum-free culture medium to achieve a final 4× concentration. Aliquots of 50 μL of each diluted compound were added per well.
(§2) JURKAT and MOLT-4 were the human leukemia cell lines selected for this assay, which were obtained from the American Type Culture Collection (ATCC).
(§3) Briefly, cells were seeded in 96 well microtiter plates at a density of 50000 cells per well in 150 μL of culture medium and incubated for 4-6 hours in drug-free medium before treatment with vehicle alone or test compounds for 72 hours.
(§4) After incubation, the cytotoxic effect was evaluated using a MTT reduction assay. 50 μL of MTT solution (1 mg/mL) were added to the wells and incubated for 15-17 hours at 37° C. until formazan crystals were formed. After gently removing the culture medium, DMSO was added to dissolve the insoluble purple formazan product into a colored solution. […] Results were expressed as percentage of control cell growth. The EC50 values (half-maximal effective concentration) used for the combination studies were calculated using Prism v5.02 software (GraphPad). EC50 was expressed as molar concentration and represented the mean of at least three independent assays.
(§5) b. In a second set of experiments, concentration-response curves for the agents tested, both alone and in two-drug combination, were performed, using the same methodology described in the previous paragraph.
(§6) Using these starting concentrations, constant serial dilutions were performed to generate the concentration-response curves for each set of drugs, alone and in combination.
(§7) Based on this equation, the term “combination index” (CI) is used as a quantitative measure of the degree of drug interactions. […] CI values were calculated by solving the equation for different values of fa (i.e., for different degrees of cell groth inhibition).
(§8) Data were analyzed using CalcuSyn software (Biosoft, Cambridge, UK). For statistical analysis and graphs Prism software (GraphPad, San Diego, USA) was used. All the results represent the mean of at least three independent experiments.

[9] = test system: MOLT-4 human leukemia cell line; test: cells; details: Homo sapiens, MOLT-4, 72 h
Experimental: as §1, §2, §3, §4, §5, §6, §7, §8

[10] = test system: SK-MEL-2 human melanoma cell line; test: cells; details: Homo sapiens, SK-MEL-2, 72 h
Method in brief: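 SK-MEL-2 melanoma cells (5,000/well) grown 24 h drug-free, then exposed 72 h to vehicle or test compounds. Viability by MTT reduction (8 h, 37 °C), formazan dissolved in DMSO; results expressed as percentage of control cell growth.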

[11] = test system: RAMOS human lymphoma cell line; test: cells; details: Homo sapiens, Ramos, 72 h
Experimental: as §3, §4, §6, §7, §8, §1
(§9) In the second set of assays, concentration-response curves for the agents tested, both alone and in two-drug combination, were performed.

[12] = test system: U-937 human lymphoma cell line; test: cells; details: Homo sapiens, U-937, 72 h
Experimental: as §3, §4, §6, §7, §8, §1, §9

[13] = test system: PANC-1 human pancreatic carcinoma cell line; test: cells; details: Homo sapiens, PANC-1, 72 h
Method in brief: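 Cells seeded at 5,000/well, left 24 h drug-free, then exposed to test compounds for 72 h. Viability read by MTT reduction (MTT added for 8 h at 37° C, formazan dissolved in DMSO).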

[14] = test system: A673 human rhabdomyosarcoma cell line; test: cells; details: Homo sapiens, A673, 72 h
Method in brief: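 A673 cells seeded at 5,000 per well, grown 24 h drug-free, then exposed to compounds for 72 h. Viability by MTT reduction (8 h, 37 °C), formazan dissolved in DMSO. Results expressed as percentage of control cell growth.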

[15] = test system: U87-MG human glioblastoma cell line; test: cells; details: Homo sapiens, U-87 MG, 72 h

COc1cc2c(cc1O)CCN[C@]21CS[C@@H]2c3c(OC(C)=O)c(C)c4c(c3[C@H](COC1=O)N1[C@@H]2[C@H]2c3c(cc(C)c(OC)c3O)C[C@@H]([C@@H]1O)N2C)OCO4 [ET-743, trabectedin]
IC50 [1]: 6.45 nM | IC50 [2]: 9.6 nM | IC50 [3]: 2 nM | IC50 [4]: 7.21 nM | IC50 [5]: 8 nM | IC50 [6]: 5.8 nM | IC50 [7]: 22.5 nM | EC50 [8]: 6.96 nM | EC50 [9]: 3.84 nM | IC50 [10]: 2 nM | EC50 [11]: 9.55 nM | EC50 [12]: 8.62 nM | IC50 [13]: 21 nM | IC50 [14]: 1.9 nM | IC50 [15]: 5 nM
